{"source": "paper PMC9048745", "about": "“Physicochemical investigation of a novel curcumin diethyl γ-aminobutyrate, a carbamate ester prodrug of curcumin with enhanced anti-neuroinflammatory activity” (PLoS ONE, 2022)", "key": {"[1]": {"parameters": "method as in PMID 9278892", "conditions": "cited from earlier work"}, "[2]": {"assay": "Identification of incomplete hydrolytic products of CUR-2GE (UPLC-MS/MS)", "assay_type": "physicochemical", "conditions": "buffer pH 1.2, 37°C, 24 h; ND = not detected", "description": "The incomplete hydrolytic products of CUR-2GE were identified in buffers (pH 1.2, 4.5, 6.8 and 7.4) and human plasma. For hydrolysis in the buffer solutions, the stock solution of CUR-2GE at 200 μg/mL was diluted with a pre-incubated buffer in a vial at 37°C to obtain a final concentration at 10 μg/mL. Samples in buffers pH 1.2 and 4.5 were subsequently incubated at 37°C for 24 h while those in buffers pH 6.8 and 7.4 were incubated at 37°C for 7 min. For hydrolysis in human plasma, the stock solution of CUR-2GE at 100 μg/mL in the diluent was prepared and diluted with pre-incubated human plasma at 37°C for 5 min to obtain a final concentration of 5 μg/mL. The sample was incubated at 37°C for 1 h and an aliquot of 300 μL was added with 300 μL of acetonitrile to stop the reaction. The reaction mixture was then centrifuged at 4°C at 14,000 rpm for 30 min. The supernatant was analyzed using UPLC-MS/MS described below. CUR-2GE, CUR-1GE and curcumin standards were prepared at 10 μg/mL in diluent (2% acetic acid in water: acetonitrile (80: 20, v/v)) and were subjected to UPLC-MS/MS analysis. The retention times and MS/MS spectra of CUR-2GE and its hydrolytic products in buffers and human plasma were compared with those of the standards. The UPLC-MS/MS approach was modified from previous studies. […]"}, "[3]": {"parameters": "method as in PMID 29678124, PMID 25923809, PMID 27758710", "conditions": "practically insoluble = <0.1 mg/mL; cited from earlier work"}, "BV-2 microglial cells": {"system": "BV-2 microglial cells", "assay": "Cytotoxicity (MTT assay)", "assay_type": "cell-based, murine", "conditions": "BV-2 cells, 24 h", "description": "BV-2 microglial cells were cultured in DMEM supplemented with 10% fetal bovine serum, 2 mM L-glutamine, 1% penicillin/streptomycin (100 units/mL penicillin and 100 μg/mL streptomycin) at 37°C in 5% CO2. BV-2 microglial cells were plated in a 24-well plate at a density of 2 × 10^5 cells/well for 24 h. Various concentrations at 0, 1.25, 2.5, 5, 10, or 20 μM of curcumin or CUR-2GE were determined for a non-toxic concentration. After 24 h, cell viability was assessed by an MTT assay. The media was removed and replaced with an MTT solution in PBS (0.5 mg/mL). After 3-h incubation, the MTT solution was discarded, and formazan crystals formed after the reaction was dissolved in DMSO. The absorbance was then read at 540 nm using a microplate reader (CLARIOstar®, BMG Labtech, Ortenberg, Germany). The percentage of cell viability was expressed relative to the control cells. In addition, the cell viability of BV-2 microglial cells treated with LPS and a combination of LPS and the test compounds was also determined."}}}
{"substance": "curcumin", "values": [{"measurement": "half-life in human plasma, previously reported", "setting": "[1]", "value": 8, "unit": "h"}, {"measurement": "detection by UPLC-MS/MS after incubation of CUR-2GE", "setting": "[2]", "value": "not detected"}, {"measurement": "USP solubility classification", "setting": "[3]", "value": "practically insoluble"}, {"measurement": "non-toxic concentrations (no cytotoxicity)", "setting": "BV-2 microglial cells", "value": "≤ 10", "unit": "µM"}]}
